Results: patent publication US20130079345A1, “[…] ACTIVE DISUBSTITUTED TRIAZINE DERIVATIVES” (BAYER INTELLECTUAL PROPERTY GMBH, priority 2010, published 2013)

What was measured:
CDK9/Cyclin K = molecular target: T1, CDK9/Cyclin K (Homo sapiens, UniProt P50750); assay: LanthaScreen Eu Kinase Binding Assay, CDK9/Cyclin K; details: tracer 236, read-out: Affinity (Kd) CDK9/Cyclin K
T1 construct: purchased Invitrogen
Protocol: (§1) This protocol describes how the LanthaScreen Eu Kinase Binding Assay was performed to determine dissociation constants (Kd) of compounds of general formula (I) and CDK/Cyclin complexes. The principle behind this assay is based upon the binding and displacement of an Alexa Fluor 647-labeled tracer, which binds to the active site of kinases. Binding of the tracer to the kinase is detected using a Eu-labeled antibody. Simultaneous binding of both the tracer and antibody to the kinase gives rise to a FRET-signal. Binding of an inhibitor to the kinase competes for binding with the tracer, resulting in a loss of FRET.
(§2) The compounds of general formula (I) summarized in Table 1 were diluted from a 10 mM DMSO stock solution 1:10 in a total volume of 15 μL DMSO. This compound predilution was then serial diluted 1:3 over 8 steps in DMSO and briefly spun down. Each compound solution was now diluted 1:33.33 in kinase buffer (HEPES: 20 mM, pH: 8.0; MgCl2: 10 mM; DTT: 1 mM; Brij-35: 0.01%), mixed thoroughly and spun down. For every sample, 5 μL of the diluted compound were mixed with 5 μL tracer working solution (e.g. 60 nM tracer 236 in kinase buffer for CDK2/Cyclin A) and 5 μL CDK/Cyclin/Anti-GST-AB-working solution (e.g. 15 nM CDK2/Cyclin A, 1:250 dilution of Anti-GST-AB in kinase buffer) in a well of a small volume 384 well plate (Corning Incorporated, Corning, N.Y., USA; order no. 3673). […] For positive controls, in each well 5 μL of DMSO working solution (3% DMSO diluted in kinase buffer) was mixed with 5 μL CDK/Cyclin/Anti-GST-AB-working solution: (e.g. 15 nM CDK2/Cyclin A, 1:250 dilution of Anti-GST-AB in kinase buffer) and 5 μL Tracer working solution (e.g. 60 nM Tracer 236 in kinase buffer for CDK2/Cyclin A). Positive and negative controls were calculated from at least 8 different sample wells. The 384 well plates were mixed in a Teleshaker plate mixer (Beckman Coulter, Brea, Calif., USA) at 2000 rpm for 40 sec, and incubated for 1 h at room temperature before reading. The FRET signal was measured at 340 nm excitation, 665 nm and 615 nm emission (for the kinase tracer and LanthaScreen Eu-AB, respectively) with an Envision spectrophotometer (Perkin Elmer, Waltham, Mass., USA) with 50 μs delay and 300 μs integration time. Kd values were determined from the sigmoidal dose response curves with the software Quattro Workflow (Quattro GmbH, Munich, Germany).

CDK7/CyclinH/Mat1 [1] = molecular target: T2, CDK7/CyclinH/Mat1 (Homo sapiens, UniProt P50613); assay: LanthaScreen Eu Kinase Binding Assay, CDK7; details: tracer 236, read-out: Affinity (Kd) CDK7
T2 construct: purchased Carna Biosciences
T2 sequence (P50613 whole entry): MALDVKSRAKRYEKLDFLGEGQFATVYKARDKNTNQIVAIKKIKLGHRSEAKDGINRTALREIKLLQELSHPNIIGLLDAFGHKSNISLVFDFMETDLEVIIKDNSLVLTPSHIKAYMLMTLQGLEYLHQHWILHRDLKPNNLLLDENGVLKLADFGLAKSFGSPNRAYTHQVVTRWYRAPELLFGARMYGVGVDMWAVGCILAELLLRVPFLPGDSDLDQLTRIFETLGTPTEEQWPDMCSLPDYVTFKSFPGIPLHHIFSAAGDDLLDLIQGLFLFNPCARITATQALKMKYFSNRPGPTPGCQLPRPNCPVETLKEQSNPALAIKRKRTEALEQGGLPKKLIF
T2 sequence (P51946 whole entry partner): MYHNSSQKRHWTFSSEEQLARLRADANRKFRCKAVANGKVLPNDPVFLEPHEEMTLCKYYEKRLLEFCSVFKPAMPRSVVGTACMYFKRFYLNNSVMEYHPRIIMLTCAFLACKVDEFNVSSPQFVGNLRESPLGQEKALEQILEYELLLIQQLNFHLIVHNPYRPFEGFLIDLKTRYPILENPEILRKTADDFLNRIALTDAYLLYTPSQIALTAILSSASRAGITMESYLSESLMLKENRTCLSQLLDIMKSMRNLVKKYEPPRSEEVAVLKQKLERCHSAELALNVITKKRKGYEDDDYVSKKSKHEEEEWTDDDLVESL
T2 sequence (P51948 whole entry partner): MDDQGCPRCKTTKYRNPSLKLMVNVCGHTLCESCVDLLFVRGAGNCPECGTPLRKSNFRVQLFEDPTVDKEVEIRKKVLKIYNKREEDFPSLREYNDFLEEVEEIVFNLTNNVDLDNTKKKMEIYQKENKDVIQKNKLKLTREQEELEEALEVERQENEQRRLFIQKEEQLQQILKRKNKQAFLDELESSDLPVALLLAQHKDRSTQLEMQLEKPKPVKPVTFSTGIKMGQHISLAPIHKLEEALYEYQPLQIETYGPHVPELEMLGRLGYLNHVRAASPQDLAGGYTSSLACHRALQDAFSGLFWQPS
Protocol: as §1, §2

CDK9/Cyclin T1 = molecular target: T3, CDK9/Cyclin T1 (Homo sapiens, UniProt P50750); assay: LanthaScreen Eu Kinase Binding Assay, CDK9/Cyclin T1; details: tracer 236, read-out: Affinity (Kd) CDK9/Cyclin T1
T3 construct: purchased Invitrogen
T3 sequence (P50750 whole entry): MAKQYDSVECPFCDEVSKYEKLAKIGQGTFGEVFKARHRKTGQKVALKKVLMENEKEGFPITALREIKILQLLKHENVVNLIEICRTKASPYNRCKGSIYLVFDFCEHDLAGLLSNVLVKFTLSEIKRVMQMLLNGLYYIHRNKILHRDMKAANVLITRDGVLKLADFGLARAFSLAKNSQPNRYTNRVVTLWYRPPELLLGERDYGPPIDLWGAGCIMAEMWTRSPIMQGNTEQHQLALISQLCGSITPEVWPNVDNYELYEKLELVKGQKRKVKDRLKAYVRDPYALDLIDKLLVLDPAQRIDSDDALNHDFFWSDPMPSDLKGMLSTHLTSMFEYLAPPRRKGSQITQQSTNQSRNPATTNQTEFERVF
T3 sequence (O60563 whole entry partner): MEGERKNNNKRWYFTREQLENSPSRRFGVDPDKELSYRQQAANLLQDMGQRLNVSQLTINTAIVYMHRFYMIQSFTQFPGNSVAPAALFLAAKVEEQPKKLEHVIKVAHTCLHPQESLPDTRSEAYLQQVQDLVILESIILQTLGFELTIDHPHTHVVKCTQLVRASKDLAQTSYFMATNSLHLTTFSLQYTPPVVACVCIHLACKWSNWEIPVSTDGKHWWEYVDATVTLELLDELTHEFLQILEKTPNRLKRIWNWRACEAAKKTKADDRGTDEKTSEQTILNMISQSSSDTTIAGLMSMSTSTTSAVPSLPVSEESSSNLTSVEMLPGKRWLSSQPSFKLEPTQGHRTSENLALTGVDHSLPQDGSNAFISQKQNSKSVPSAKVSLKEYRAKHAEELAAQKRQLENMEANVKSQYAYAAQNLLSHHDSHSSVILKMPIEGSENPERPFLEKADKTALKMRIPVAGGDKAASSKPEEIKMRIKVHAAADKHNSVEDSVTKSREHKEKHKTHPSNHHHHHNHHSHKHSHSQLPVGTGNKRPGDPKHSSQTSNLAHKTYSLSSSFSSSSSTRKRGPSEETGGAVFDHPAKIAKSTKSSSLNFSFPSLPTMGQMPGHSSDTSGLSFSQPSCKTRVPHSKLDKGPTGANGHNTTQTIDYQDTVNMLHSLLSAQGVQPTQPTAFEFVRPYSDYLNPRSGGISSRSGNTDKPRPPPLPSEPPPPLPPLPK
Protocol: as §1, §2

CDK8/Cyclin C = molecular target: T4, CDK8/Cyclin C (Homo sapiens, UniProt P49336); assay: LanthaScreen Eu Kinase Binding Assay, CDK8; details: tracer 236, read-out: Affinity (Kd) CDK8
T4 construct: purchased Invitrogen
T4 sequence (P49336 whole entry): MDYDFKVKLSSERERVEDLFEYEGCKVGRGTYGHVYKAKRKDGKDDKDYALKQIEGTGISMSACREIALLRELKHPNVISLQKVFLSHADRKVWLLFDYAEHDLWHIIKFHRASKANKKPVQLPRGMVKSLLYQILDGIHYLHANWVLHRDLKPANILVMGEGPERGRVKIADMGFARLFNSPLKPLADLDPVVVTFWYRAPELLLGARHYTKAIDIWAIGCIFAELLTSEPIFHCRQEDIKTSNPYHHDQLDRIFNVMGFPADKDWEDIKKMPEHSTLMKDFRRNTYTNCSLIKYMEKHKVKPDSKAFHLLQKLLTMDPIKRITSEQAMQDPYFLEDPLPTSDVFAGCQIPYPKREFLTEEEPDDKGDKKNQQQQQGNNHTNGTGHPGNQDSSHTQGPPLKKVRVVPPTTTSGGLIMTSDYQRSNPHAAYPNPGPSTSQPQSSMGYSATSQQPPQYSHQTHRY
T4 sequence (P24863 whole entry partner): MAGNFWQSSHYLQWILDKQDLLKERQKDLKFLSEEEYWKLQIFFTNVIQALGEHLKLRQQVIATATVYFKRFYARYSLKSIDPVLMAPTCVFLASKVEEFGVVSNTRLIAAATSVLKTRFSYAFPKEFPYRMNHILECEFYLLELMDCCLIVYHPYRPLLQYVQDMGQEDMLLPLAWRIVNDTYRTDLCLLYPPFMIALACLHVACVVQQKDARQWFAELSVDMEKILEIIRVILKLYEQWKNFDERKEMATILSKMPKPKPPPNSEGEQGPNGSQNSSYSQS
Protocol: as §1, §2

CDK2/CyclinA [2] = molecular target: T5, CDK2/CyclinA (Homo sapiens, UniProt P24941); assay: LanthaScreen Eu Kinase Binding Assay, CDK2; details: tracer 236, read-out: Affinity (Kd) CDK2
T5 construct: purchased Proqinase
Protocol: as §1, §2

[3] = tested on: NF-kappaB reporter gene activation in HEK293 cells; assay: NF-kappaB reporter assay; type: cell-based; details: Homo sapiens, 20 ng/ml TNF alpha, 5 h
Protocol: Cells were maintained in RPMI cell culture medium+glutamine (PAN Biotech GmbH, Aidenbach, Germany) supplemented with 10% fetal calf serum (PAA Laboratories GmbH, Pasching, Austria) and grown at 37° C., 5% CO2. HEK293 cells grown to 50% confluence were transfected with the Amaxa® Cell Line Nucleofector® Kit V (Lonza, Basel, Switzerland, catalog #VCA-1003). Transfections were performed according to manufacturer's optimized protocol for transfection of HEK293 cells. In brief, 2×10^5 cells were transfected with 5 μg highly purified plasmid DNA. Cells were transfected with a NF-kappa B reporter plasmid (pNFkBluc), pTALluc for control, or pMAXGFP for transfection control. After transfection, cells were taken up in 500 μL RPMI1640 cell culture medium, incubated for 1 h at 37° C., and 4.5 ml DMEM without phenol red were added per transfection. Transfected cells were seeded in 96 well plates (Greiner Bio-One, Frickenhausen, Germany, catalog #655098) with 100 μL cell suspension per well and incubated for 48 h. To each well, 100 μL DMEM with 2× concentrated compound diluted from 10 mM DMSO stocks, or 100 μL DMEM with 0.4% DMSO for control wells, was added. The compounds of general formula (I) summarized in Table 6 were used in this assay. Cells were stimulated with 20 ng/ml TNF alpha, and plates were incubated for 5 h at 37° C./5% CO2. Cell culture supernatants were removed to leave 100 μl medium per well, followed by addition of 100 μl Bright Glo luciferase assay reagent (Promega, Madison, Wis., USA, catalog #E2620), and shaking for 5 minutes in the dark. Luminescence was measured with a Victor Photospectrometer (Perkin Elmer, Waltham, Mass., USA). […], values were calculated with the software Excel Fit (IDBS, Guildford, UK) from 2-fold dilution series comprising at least 10 concentrations in duplicates.

[4] = tested on: RNA Polymerase II Ser2 phosphorylation (cellular CDK9 activity) in HCT-116 cells; assay: RNA-Polymerase II Ser2 cellular phosphorylation assay; type: cell-based; details: Homo sapiens, normalized with tubulin
Protocol: HCT-116 cells (DSMZ, Braunschweig, Germany) were maintained in Mc Coy's cell culture medium+glutamine (PAN Biotech GmbH, Aidenbach, Germany) supplemented with 10% fetal calf serum (PAA Laboratories GmbH, Pasching, Austria) and grown at 37° C., 5% CO2. For the cellular phosphorylation assay, cells were seeded with 2×10^5 cells/well/1 ml in 24-well plates (Greiner Bio—One, Frickenhausen, Germany; catalog #662160). The compounds of general formula (I) summarized in Table 6 were diluted from a 10 mM DMSO stock solution 1:10 in a total volume of 15 μL DMSO. After overnight incubation at 37° C./5% CO2, 1.5 μL of a compound diluted in DMSO was added to each sample well. Wells with cells and 0.15% DMSO in culture medium were used as positive controls, wells without cells and 0.15% DMSO in culture medium were used as negative controls. The cells were incubated with the compounds for 72 h at 37° C./5% CO2. Before lysis, cells were washed with phosphate buffered saline. Phosphorylation of RNA Polymerase II Ser2 and tubulin levels for normalization were analyzed afterwards with the Multi-Array technology (Meso Scale Discovery, Gaithersburg, Md., USA), a combination of antibody coupled electrochemiluminescence detection and patterned arrays. Manufacturer's instructions were followed and all solutions were purchased from Meso Scale Discovery. In brief, cells were lysed by 30 min incubation in CLB1 lysis buffer (Zeptosens, Witterswil, Switzerland; 60 μL per well), and supernatants were cleared by centrifugation. For analysis of RNA Polymerase II Ser2-phosphorylation, lysates were diluted 1:50 with Meso Scale Lysis Buffer supplemented with phosphatase- and protease-inhibitors, and 25 µL of each sample was pipetted in a well of a MSD Multi-Array 96-Well Plate Sector® Imager High Bind Plate (Meso Scale Discovery; catalog #L15XB-3/L11XB-3), and incubated for 2 h at room temperature. […] Meso Scale Tris Wash Buffer supplemented with 3% w/v Meso Scale Blocker A were added per well, then plates were sealed and incubated 1 h with vigorous shaking. Plates were washed with 1× Tris Wash Buffer (10× Meso Scale Wash Buffer diluted 1:10 in destilled water), 25 μL of antibody solution was added (CTD7 3E10 antibody from Helmholtz Zentrum Munich, Germany, diluted 1:100 in Meso Scale Tris Wash Buffer supplemented with 1% w/v Meso Scale Blocker A), and plates were washed three times in 1× Tris Wash Buffer. 25 μL of MSD® SULFO-TAG™ Goat-Anti-Rat-Antibody (Meso Scale Discovery, catalog #R^32AH-1, diluted 1:125 in Tris Wash Buffer with 1% (w/v) blocker A) were added per well, plates were sealed and incubated with vigorous shaking for 1 h at room temperature. Finally, plates were washed three times with Tris Wash Buffer, 150 μl 2× Read Buffer (Meso Scale Discovery) were added per well and plates were analyzed immediately in a Sector Imager from Meso Scale Discovery. For determination of tubulin protein levels, samples were analyzed with the protocol for RNA Polymerase II Ser2-phosphorylation, with an anti-tubulin antibody (rabbit; BIODESIGN International, catalog #T59840R, diluted 1:100) and a MSD® SULFO-TAG™ […] (Meso Scale Discovery, catalog #R^32AH-1, diluted 1:125). RNA Polymerase II Ser2 phosphorylation was normalized with tubulin protein levels, and EC50 values were calculated with the software XLFit (IDBS, Guildford, UK) from 2-fold dilution series comprising 6 concentrations in duplicates.

CDK9 = molecular target: T6, CDK9 (Homo sapiens, UniProt P50750); assay: Lance Ultra KinaSelect Assay, CDK9; type: biochemical; details: read-out: Inhibition (IC50) CDK9
T6 construct: purchased Invitrogen
T6 sequence (P50750 whole entry): as the sequence (P50750 whole entry) above
Protocol: (§3) This protocol describes how the Lance Ultra KinaSelect Assay was performed to determine half maximal inhibitory concentration (IC50) of compounds of general formula (I) and CDK/Cyclin complexes. The principle behind this enzymatic assay is based upon the phosphorylation of the ULight-Peptide Substrat. It is detected by using a specific EU-labeled anti-phospho peptide antibody. The binding of the Eu-labeled anti-phospho peptide antibody to the phosphorylated U Light labeled peptide gives rise to a FRET-signal. Binding of an inhibitor to the kinase prevents phosphorylation of the ULight-MBP Substrat, resulting in a loss of FRET.
(§4) The compounds of general formula (I) summarized in Table 5 were diluted from a 10 mM DMSO stock solution 1:10 in a total volume of 15 μL DMSO. This compound predilution was then serial diluted 1:3 over 8 steps in DMSO and briefly spun down. Each compound solution was now diluted 1:20 in Enzymatic Buffer (HEPES: 50 mM, pH: 7.5; MgCl2: 10 mM; EGTA: 1 mM; DTT: 2 mM; Tween-20: 0.01%), mixed thoroughly and spun down. For every sample, 2 μL of the diluted compound were mixed with 6 μL CDK/Cyclin/Substrat solution and […] in a well of a small volume 384 well plate (Corning Incorporated, Corning, N.Y., USA; order no. 3673). […] For positive controls, in each well 2 μL of DMSO solution (1% final DMSO assay concentration) was mixed with 6 μL CDK/Cyclin/Substrat (appropriate final concentration see Table 3) and 2 μL Tracer ATP solution (appropriate final concentration see Table 3). Positive and negative controls were calculated from at least 8 different sample wells. The 384 well plates were mixed in a Teleshaker plate mixer (Beckman Coulter, Brea, Calif., USA) at 2000 rpm for 40 sec, and incubated for 1 h at room temperature. Before reading, 10 μL detection buffer (Lance Detection Buffer 1×; EDTA: […]; Eu-Anti-P-MBP: see Table 3) was added. The FRET signal was measured at 340 nm excitation, 665 nm and 615 nm emission (for the kinase tracer and LanthaScreen Eu-AB, respectively) with an Envision spectrophotometer (Perkin Elmer, Waltham, Mass., USA) with 50 μs delay and 300 μs integration time. IC50 values were determined from the sigmoidal dose response curves with the software Quattro Workflow (Quattro GmbH, Munich, Germany).

CDK7/CyclinH/Mat1 [5] = molecular target: T2, CDK7/CyclinH/Mat1; assay: Lance Ultra KinaSelect Assay, CDK7; type: biochemical; details: ATP 25 μM, read-out: Inhibition (IC50) CDK7
Protocol: as §3, §4

CDK2/CyclinA [6] = molecular target: T5, CDK2/CyclinA; assay: Lance Ultra KinaSelect Assay, CDK2; type: biochemical; details: ATP 3 μM, read-out: Inhibition (IC50) CDK2
Protocol: as §3, §4

T1 sequence (P50750 whole entry): as above
T1 sequence (O75909 whole entry partner): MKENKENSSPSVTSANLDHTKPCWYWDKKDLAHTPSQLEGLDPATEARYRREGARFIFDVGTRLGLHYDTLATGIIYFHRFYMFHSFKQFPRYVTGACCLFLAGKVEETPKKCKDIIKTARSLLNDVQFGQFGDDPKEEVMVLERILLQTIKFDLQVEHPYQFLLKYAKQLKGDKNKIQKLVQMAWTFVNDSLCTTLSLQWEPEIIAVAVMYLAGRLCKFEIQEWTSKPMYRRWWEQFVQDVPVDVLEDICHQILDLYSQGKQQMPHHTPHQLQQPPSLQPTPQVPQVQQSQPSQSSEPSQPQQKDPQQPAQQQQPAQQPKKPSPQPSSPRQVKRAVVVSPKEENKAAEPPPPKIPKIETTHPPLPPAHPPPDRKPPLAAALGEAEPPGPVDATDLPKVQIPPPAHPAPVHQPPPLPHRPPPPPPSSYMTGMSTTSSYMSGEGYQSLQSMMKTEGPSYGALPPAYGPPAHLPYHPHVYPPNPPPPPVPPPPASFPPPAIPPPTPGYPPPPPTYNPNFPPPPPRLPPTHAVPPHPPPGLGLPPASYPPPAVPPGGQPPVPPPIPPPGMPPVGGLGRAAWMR

Row | Kd (CDK9/Cyclin K) [nM] | Kd (CDK7/CyclinH/Mat1 [1]) [nM] | Kd (CDK9/Cyclin T1) [nM] | Kd (CDK8/Cyclin C) [nM] | Kd (CDK2/CyclinA [2]) [nM] | IC50 (CDK9) [nM] | IC50 (CDK7/CyclinH/Mat1 [5]) [nM] | IC50 (CDK2/CyclinA [6]) [nM] | Structure (SMILES) | IC50 [3] [nM] | IC50 [4] [nM]
1 | 101 | > 10000 | 55 | > 10000 | – | – | – | – | COc1ccc(Cl)cc1-c1ncnc(Nc2cccc(CS(N)(=O)=O)c2)n1 [Compound B7, 3-[(4-(5-Chloro-2-methoxyphenyl)-1,3,5-triazin-2-yl)amino]benzenemethanesulfonamide] | – | –
2 | 2460 | > 10000 | 141 | > 10000 | 6460 | – | – | – | NS(=O)(=O)Cc1cccc(Nc2ncnc(-c3cccc4c3OCO4)n2)c1 [Compound B15, 3-[(4-(1,3-Benzodioxol-4-yl)-1,3,5-triazin-2-yl)amino]benzenemethanesulfonamide] | – | –
3 | 302 | > 10000 | 104 | 1760 | – | – | – | – | COc1ccncc1-c1ncnc(Nc2cccc(CS(N)(=O)=O)c2)n1 [Compound B18, 3-[(4-(4-Methoxypyridin-3-yl)-1,3,5-triazin-2-yl)amino]benzenemethanesulfonamide] | – | –
4 | 26.2 | > 10000 | 99 | – | – | – | – | – | Nc1ccc(-c2ncnc(Nc3cccc(CS(N)(=O)=O)c3)n2)cn1 [Compound B23, 3-[(4-(6-Aminopyridin-3-yl)-1,3,5-triazin-2-yl)amino]benzenemethanesulfonamide] | > 30000 | > 30000
5 | – | > 10000 | 6.9 | – | 851 | 24.7 | > 10000 | 1770 | COc1ccccc1-c1ncnc(Nc2cccc(S(C)(=O)=O)c2)n1 [Compound S1, 4-(2-Methoxyphenyl)-N-(3-(methylsulfonyl)phenyl)-1,3,5-triazin-2-amine] | – | –
6 | – | > 10000 | 43.7 | – | 237 | 190 | > 10000 | 259 | COc1ccccc1-c1ncnc(Nc2ccc(CS(N)(=O)=O)cc2)n1 [Compound T1, 4-[(4-(2-Methoxyphenyl)-1,3,5-triazin-2-yl)amino]benzenemethanesulfonamide] | – | –
